{"source": "patent US10822339B2", "about": "“Pyrrolopyrimidine five-membered azacyclic derivative and application thereof” (HANGZHOU HUADONG MEDICINE GROUP BIOPHARMACEUTICAL CO. LTD, priority 2016, dated 2020)", "key": {"[1]": {"experiment": "Toxic side effects experiment, 14 days repeated dosing", "conditions": "for toxic side effects: rat, in vivo; for organ tissues, blood biochemical parameters versus vehicle control group: once daily 30 mg/kg/day for 14 days", "description": "The toxic side effects of the compounds of the present invention (Ia and Ib) were studied. The rats were administered once daily at 30 mg/kg/day for 14 days consecutively."}, "JAK2": {"target": "JAK2 (Homo sapiens, UniProt O60674)", "sequence (O60674 whole entry)": "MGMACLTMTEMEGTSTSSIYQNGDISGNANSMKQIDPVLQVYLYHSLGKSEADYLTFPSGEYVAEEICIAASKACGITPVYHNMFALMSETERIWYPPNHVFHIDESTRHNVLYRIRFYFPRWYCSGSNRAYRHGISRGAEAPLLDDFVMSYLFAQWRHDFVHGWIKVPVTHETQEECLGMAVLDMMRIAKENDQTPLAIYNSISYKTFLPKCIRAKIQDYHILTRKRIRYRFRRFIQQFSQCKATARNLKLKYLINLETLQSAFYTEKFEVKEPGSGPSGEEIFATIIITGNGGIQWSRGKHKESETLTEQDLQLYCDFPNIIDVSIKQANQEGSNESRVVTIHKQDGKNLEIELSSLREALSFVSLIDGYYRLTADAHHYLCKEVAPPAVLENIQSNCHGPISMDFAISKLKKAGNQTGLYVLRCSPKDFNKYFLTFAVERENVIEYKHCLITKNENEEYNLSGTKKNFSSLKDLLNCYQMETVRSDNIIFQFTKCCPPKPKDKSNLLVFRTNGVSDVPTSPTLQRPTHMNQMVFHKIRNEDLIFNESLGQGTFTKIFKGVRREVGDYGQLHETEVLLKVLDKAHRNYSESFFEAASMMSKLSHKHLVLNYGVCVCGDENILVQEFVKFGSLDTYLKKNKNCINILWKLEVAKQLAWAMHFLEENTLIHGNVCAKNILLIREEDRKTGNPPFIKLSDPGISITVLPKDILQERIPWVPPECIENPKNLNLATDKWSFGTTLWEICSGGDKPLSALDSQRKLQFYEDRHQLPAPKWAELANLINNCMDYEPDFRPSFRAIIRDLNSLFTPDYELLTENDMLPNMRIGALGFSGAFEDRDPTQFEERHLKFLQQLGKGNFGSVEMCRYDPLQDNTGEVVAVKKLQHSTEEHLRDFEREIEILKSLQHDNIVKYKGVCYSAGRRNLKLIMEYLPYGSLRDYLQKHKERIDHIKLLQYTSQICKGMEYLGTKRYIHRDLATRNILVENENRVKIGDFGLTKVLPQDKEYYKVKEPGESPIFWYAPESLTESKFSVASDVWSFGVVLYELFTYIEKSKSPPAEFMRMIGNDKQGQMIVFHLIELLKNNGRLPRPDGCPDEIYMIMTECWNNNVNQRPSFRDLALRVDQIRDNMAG", "experiment": "Enzyme activity inhibition, Caliper Mobility Shift Assay", "type": "biochemical", "conditions": "for IC50: read-out: Kinase inhibitory activity (IC50, nM) JAK2", "description": "(§1) The semi-inhibitory concentration IC50 of the compounds (the concentration of the compounds required to inhibit enzyme activity to 50%) is determined by the immobilized enzyme mixed with a specific substrate and different concentrations of the test compounds. The determination method used was a Caliper Mobility Shift Assay. The kinases determined were JAK1, JAK2, JAK3 and TYK2. The standard reference compound used was staurosporine."}, "JAK3": {"target": "T1, JAK3 (Homo sapiens, UniProt P52333)", "T1 sequence (P52333 1-1124)": "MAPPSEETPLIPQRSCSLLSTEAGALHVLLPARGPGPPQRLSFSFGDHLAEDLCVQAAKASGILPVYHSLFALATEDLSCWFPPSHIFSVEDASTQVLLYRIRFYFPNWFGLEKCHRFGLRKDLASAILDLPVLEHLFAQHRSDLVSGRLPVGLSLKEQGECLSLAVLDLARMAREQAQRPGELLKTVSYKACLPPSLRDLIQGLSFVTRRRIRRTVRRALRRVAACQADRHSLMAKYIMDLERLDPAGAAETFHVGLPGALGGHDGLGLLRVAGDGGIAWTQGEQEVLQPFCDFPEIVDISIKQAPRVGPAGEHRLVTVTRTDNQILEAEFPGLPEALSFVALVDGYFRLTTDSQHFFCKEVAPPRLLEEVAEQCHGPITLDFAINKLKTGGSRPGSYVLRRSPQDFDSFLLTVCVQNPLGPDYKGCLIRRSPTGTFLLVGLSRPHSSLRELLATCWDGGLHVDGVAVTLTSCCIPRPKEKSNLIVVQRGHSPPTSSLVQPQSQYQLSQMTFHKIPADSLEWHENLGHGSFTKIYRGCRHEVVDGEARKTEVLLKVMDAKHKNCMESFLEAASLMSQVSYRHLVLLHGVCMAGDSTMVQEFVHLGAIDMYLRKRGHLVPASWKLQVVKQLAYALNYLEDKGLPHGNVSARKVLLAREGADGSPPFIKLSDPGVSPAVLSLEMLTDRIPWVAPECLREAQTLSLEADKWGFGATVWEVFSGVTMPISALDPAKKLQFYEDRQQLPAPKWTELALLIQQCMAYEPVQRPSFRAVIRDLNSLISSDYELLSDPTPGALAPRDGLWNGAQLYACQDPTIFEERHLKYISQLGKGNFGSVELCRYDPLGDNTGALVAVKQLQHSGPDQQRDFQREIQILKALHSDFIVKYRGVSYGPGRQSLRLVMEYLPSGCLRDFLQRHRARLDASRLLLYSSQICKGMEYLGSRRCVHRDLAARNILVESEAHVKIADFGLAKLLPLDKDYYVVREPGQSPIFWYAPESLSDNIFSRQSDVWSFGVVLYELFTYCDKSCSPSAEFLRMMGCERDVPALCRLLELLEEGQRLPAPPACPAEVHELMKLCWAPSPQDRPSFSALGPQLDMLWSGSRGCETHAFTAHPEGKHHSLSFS", "experiment": "Enzyme activity inhibition, Caliper Mobility Shift Assay", "type": "biochemical", "conditions": "read-out: Kinase inhibitory activity (IC50, nM) JAK3", "description": "as §1"}, "TYK2": {"target": "TYK2 (Homo sapiens, UniProt P29597)", "sequence (P29597 whole entry)": "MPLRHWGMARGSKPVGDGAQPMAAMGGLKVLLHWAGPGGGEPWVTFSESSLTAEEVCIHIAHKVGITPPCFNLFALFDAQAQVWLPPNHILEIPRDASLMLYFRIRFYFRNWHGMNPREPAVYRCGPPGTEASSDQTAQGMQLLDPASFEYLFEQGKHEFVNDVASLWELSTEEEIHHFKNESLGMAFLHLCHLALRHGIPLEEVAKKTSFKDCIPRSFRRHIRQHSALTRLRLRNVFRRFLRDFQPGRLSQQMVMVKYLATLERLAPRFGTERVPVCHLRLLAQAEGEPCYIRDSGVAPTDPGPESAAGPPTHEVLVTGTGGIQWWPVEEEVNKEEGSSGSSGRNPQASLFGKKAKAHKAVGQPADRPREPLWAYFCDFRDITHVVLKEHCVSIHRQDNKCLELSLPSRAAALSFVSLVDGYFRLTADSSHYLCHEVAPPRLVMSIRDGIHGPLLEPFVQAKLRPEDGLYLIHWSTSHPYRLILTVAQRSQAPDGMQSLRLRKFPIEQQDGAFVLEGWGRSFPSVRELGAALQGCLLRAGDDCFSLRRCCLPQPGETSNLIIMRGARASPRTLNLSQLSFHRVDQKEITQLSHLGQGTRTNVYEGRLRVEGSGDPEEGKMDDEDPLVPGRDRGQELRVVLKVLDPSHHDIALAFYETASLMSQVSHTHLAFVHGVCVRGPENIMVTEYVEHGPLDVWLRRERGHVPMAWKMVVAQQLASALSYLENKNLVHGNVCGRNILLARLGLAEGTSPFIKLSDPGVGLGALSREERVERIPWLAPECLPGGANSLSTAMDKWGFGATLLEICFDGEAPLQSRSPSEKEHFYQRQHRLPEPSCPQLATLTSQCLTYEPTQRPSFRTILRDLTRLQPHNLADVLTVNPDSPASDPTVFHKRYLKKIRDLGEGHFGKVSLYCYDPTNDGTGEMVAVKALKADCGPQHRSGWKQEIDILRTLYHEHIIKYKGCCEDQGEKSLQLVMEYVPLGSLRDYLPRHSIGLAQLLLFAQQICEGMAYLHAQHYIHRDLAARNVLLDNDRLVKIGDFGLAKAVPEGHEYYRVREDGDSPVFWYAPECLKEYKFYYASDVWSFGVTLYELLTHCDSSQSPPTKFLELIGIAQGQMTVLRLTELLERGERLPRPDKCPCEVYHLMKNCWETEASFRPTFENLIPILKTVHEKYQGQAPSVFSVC", "experiment": "Enzyme activity inhibition, Caliper Mobility Shift Assay", "type": "biochemical", "conditions": "read-out: Kinase inhibitory activity (IC50, nM) TYK2", "description": "as §1"}, "hERG": {"target": "T2, hERG (Homo sapiens, UniProt Q12809)", "T2 construct": "expressed in transfected cells; host or cells: HEK293", "T2 sequence (Q12809 whole entry)": "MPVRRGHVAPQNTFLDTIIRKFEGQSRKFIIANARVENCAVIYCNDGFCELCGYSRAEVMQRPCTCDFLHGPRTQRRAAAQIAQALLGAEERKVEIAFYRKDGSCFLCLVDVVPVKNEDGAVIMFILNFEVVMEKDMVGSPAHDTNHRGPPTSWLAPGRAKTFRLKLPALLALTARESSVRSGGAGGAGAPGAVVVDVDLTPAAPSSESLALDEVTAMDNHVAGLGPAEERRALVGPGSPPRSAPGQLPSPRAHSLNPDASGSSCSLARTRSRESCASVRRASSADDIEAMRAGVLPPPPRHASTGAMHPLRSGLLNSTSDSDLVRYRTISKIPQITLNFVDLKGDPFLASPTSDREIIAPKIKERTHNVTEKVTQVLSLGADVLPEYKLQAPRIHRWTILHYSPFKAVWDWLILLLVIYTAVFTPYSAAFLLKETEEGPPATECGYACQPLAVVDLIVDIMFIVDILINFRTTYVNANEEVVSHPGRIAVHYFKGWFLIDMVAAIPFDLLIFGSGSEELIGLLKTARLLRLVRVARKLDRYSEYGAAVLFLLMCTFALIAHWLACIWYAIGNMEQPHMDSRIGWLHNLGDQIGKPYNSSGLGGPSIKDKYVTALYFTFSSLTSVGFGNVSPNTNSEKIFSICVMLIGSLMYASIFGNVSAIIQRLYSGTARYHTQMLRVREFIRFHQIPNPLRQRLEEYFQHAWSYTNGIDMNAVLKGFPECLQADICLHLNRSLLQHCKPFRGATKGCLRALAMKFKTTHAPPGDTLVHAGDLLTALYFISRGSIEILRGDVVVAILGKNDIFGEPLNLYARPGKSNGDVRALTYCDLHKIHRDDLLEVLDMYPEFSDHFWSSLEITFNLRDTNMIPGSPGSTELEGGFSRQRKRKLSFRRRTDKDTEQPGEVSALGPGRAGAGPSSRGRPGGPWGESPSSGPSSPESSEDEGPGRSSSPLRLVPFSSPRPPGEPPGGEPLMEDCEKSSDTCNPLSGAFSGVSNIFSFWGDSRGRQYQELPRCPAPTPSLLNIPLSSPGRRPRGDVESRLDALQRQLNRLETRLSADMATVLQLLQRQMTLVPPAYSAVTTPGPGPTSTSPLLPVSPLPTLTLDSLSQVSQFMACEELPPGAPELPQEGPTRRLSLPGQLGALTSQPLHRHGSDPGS", "experiment": "Whole cell hERG potassium channel current blocking, automatic patch clamp", "type": "cell-based", "conditions": "HEK293 cells expressing hERG stably", "excerpt": "Potassium channel current blocking percentage of whole cell hERG by the compounds of the present invention is studied using HEK293 cells expressing hERG stably and automatic patch clamp system detection method, the dose-effect relationship curve was obtained. The positive drug is Cisapride."}, "[2]": {"test_system": "adjuvant-induced arthritis", "experiment": "Rat adjuvant-induced arthritis efficacy model", "type": "in vivo", "conditions": "oral; for animal clinical scores / paw volumes: dose groups of 10 mg/kg and 15 mg/kg; for animal body weight increase versus vehicle group: treatment groups, 14 days dosing"}, "[3]": {"experiment": "Pharmacokinetic experiments in Beagles", "type": "in vivo", "conditions": "single administration; for half-life: read-out: Terminal t1/2 (converted)", "description": "Experimental animals: Beagles, male and female; body weight: 7-9 kg;\nPreparation of test samples: the compound (Ia) of the present invention was formulated into 2.5 mg/mL (for intravenous administration) and 2.0 mg/mL (for oral administration) for use. Routes of administration: oral/intravenous injection. Dosing capacity and frequency: 2 mL/kg (intravenous injection) or 5 mL/kg (oral), single administration.\nSample collection: blood was collected at the following time points: post-dose at 5 min, 15 min, 30 min, 1 hr, 2 hrs, 4 hrs, 8 hrs, and 24 hrs.\nSample analysis: The collected samples were tested using the LC-MS/MS method. The instrument model is API4000.\nPharmacokinetic data analysis: WinNolin was used to fit and calculate the obtained plasma concentration data according to the non-compartmental model method."}, "JAK1": {"target": "JAK1 (Homo sapiens, UniProt P23458)", "sequence (P23458 whole entry)": "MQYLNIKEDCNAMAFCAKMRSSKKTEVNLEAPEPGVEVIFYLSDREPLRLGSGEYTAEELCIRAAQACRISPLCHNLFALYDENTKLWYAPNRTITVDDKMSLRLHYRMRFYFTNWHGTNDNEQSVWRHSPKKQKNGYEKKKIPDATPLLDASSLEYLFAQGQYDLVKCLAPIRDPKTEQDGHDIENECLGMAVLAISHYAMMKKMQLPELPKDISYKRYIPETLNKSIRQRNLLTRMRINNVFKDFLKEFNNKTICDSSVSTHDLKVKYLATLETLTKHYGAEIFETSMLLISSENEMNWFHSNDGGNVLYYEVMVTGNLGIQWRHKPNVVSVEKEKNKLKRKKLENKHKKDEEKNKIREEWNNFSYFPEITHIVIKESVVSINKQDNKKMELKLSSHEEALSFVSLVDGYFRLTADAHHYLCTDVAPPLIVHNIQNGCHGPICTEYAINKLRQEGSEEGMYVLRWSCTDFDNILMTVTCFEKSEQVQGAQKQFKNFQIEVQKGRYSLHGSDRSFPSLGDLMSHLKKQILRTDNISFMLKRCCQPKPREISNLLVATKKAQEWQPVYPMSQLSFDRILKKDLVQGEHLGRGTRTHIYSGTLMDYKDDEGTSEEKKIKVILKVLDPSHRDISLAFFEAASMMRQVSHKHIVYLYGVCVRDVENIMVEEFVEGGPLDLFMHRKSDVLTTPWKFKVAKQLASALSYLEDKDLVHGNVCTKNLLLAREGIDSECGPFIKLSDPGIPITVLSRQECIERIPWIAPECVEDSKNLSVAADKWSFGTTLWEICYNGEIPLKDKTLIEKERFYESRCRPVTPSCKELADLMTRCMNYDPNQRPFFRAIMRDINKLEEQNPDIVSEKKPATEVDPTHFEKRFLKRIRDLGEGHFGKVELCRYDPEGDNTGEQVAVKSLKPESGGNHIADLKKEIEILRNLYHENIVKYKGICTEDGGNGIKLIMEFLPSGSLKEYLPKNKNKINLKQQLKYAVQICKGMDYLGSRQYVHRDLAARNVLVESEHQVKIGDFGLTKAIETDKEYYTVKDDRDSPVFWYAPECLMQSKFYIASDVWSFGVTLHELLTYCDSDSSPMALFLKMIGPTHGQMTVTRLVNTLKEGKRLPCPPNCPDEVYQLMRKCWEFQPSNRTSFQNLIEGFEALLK", "experiment": "Enzyme activity inhibition, Caliper Mobility Shift Assay", "type": "biochemical", "conditions": "read-out: Kinase inhibitory activity (IC50, nM) JAK1", "description": "as §1"}, "[4]": {"conditions": "both sexes, beagle, dog, plasma, intravenous injection, 5 mg/kg"}, "[5]": {"conditions": "both sexes, beagle, dog, plasma, oral, 10 mg/kg"}}, "note": "pIC50: −log10 of the molar value. Where two headings read alike, the source gives them in different places.", "data": [{"smiles": "CCS(=O)(=O)N1CC(CC#N)(n2cc(-c3ncnc4[nH]ccc34)cn2)C1", "note": "[Baricitinib, reference compound]", "values": [{"measurement": "toxic side effects", "setting": "[1]; 30 mg/kg/day", "result": "certain toxic side effects"}, {"measurement": "thymus and spleen tissues size", "setting": "[1]; rats, 30 mg/kg/day, same experiment", "result": "significantly reduced (a quarter of the normal size)"}]}, {"smiles": "CCS(=O)(=O)N1CCC(CC#N)(n2cc(-c3ncnc4[nH]ccc34)cn2)CC1", "note": "[Compound of formula Ia]", "values": [{"measurement": "inhibitory effects on JAK2 kinase", "setting": "JAK2", "result": "very strong inhibitory effects"}, {"measurement": "IC50", "setting": "JAK2", "result": 0.2, "unit": "nM"}, {"measurement": "IC50", "setting": "JAK3", "result": 27, "unit": "nM"}, {"measurement": "IC50", "setting": "TYK2", "result": 7.3, "unit": "nM"}, {"measurement": "pIC50", "setting": "hERG", "result": "< 4.52"}, {"measurement": "animal clinical scores", "setting": "[2]", "result": "almost close to the normal group"}, {"measurement": "paw volumes", "setting": "[2]", "result": "almost close to the normal group"}, {"measurement": "animal body weight increase versus vehicle group", "setting": "[2]", "result": "greater increases in animal body weight than that of the vehicle group"}, {"measurement": "AUC(0-t)", "setting": "[3]; [4]", "result": 10900, "unit": "ng·h/mL"}, {"measurement": "MRT inf", "setting": "[3]; [4]", "result": 4.16, "unit": "h"}, {"measurement": "clearance", "setting": "[3]; [4]", "result": 7.5, "unit": "mL/min/kg"}, {"measurement": "half-life", "setting": "[3]; [4]", "result": 4.78, "unit": "h"}, {"measurement": "Vd", "setting": "[3]; both sexes, beagle, dog, plasma, intravenous injection, 5 mg/kg, read-out: Vss", "result": 1.85, "unit": "L/kg"}, {"measurement": "AUC(0-t)", "setting": "[3]; [5]", "result": 10600, "unit": "ng·h/mL"}, {"measurement": "Cmax", "setting": "[3]; [5]", "result": 2500, "unit": "ng/mL"}, {"measurement": "Tmax", "setting": "[3]; [5]", "result": 0.25, "unit": "h"}, {"measurement": "half-life", "setting": "[3]; [5]", "result": 5.79, "unit": "h"}, {"measurement": "F", "setting": "[3]; oral, 10 mg/kg", "result": 49.4, "unit": "%"}, {"measurement": "toxic side effects", "setting": "[1]; 30 mg/kg/day", "result": "no obvious toxic side effects"}, {"measurement": "organ tissues, blood biochemical parameters versus vehicle control group", "setting": "[1]; rats", "result": "no significant difference"}]}, {"smiles": "CCS(=O)(=O)N1CCC(CC#N)(n2ccc(-c3ncnc4[nH]ccc34)c2)CC1", "note": "[Compound of formula Ib]", "values": [{"measurement": "IC50", "setting": "JAK1", "result": 31, "unit": "nM"}, {"measurement": "inhibitory effects on JAK2 kinase", "setting": "JAK2", "result": "very strong inhibitory effects"}, {"measurement": "selective inhibitory activities", "setting": "JAK2; JAK2 versus the other kinases tested", "result": "good selective inhibitory activities"}, {"measurement": "IC50", "setting": "JAK2", "result": 0.4, "unit": "nM"}, {"measurement": "pIC50", "setting": "hERG", "result": "< 4.52"}, {"measurement": "animal clinical scores", "setting": "[2]", "result": "almost close to the normal group"}, {"measurement": "paw volumes", "setting": "[2]", "result": "almost close to the normal group"}, {"measurement": "animal body weight increase versus vehicle group", "setting": "[2]", "result": "greater increases in animal body weight than that of the vehicle group"}, {"measurement": "toxic side effects", "setting": "[1]; 30 mg/kg/day", "result": "no obvious toxic side effects"}, {"measurement": "organ tissues, blood biochemical parameters versus vehicle control group", "setting": "[1]; rats", "result": "no significant difference"}]}]}
